Drawing on ChEMBL document CHEMBL6134925, “Novel Pyrrolidinone Urea as FPR2 Agonists for Treating Atherosclerosis and Heart Failure” (ACS Med Chem Lett, 2025), this text covers EC50 for six molecules.

In the assay the target is T1, N-formyl peptide receptor 2 (Homo sapiens, UniProt P25090).
T1 sequence (P25090 whole entry): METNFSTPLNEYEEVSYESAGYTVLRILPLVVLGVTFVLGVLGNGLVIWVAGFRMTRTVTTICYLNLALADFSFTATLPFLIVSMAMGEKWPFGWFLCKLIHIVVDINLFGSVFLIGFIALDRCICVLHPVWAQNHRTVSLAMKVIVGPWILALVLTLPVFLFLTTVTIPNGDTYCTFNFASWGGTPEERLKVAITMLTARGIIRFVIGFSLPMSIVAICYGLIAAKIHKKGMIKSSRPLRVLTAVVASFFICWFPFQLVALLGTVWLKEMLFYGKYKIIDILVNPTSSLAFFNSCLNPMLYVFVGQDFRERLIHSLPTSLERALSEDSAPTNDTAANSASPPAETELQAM
The assay is described as follows: Agonist activity at human FPR2 receptor expressed in CHO cells assessed as forskolin/IBMX-induced intracellular cAMP level incubated for 30 mins by HTRF HiRange cAMP assay. It is filed as functional, cell-based. Background: Changes in cAMP serve as a functional read-out for many G protein-coupled receptors.

With `CN[C@@H]1CCN(c2ccc(N3CCC(NC(=O)Nc4ccc(Cl)cc4)C3=O)c(F)c2F)C1` (stereo partly specified), the EC50 was 5.6 nM.
For the molecule `O=C(Nc1ccc(C(F)(F)F)cc1F)NC1CCN(c2c(F)cc(N3CCCS3(=O)=O)cc2F)C1=O` (stereo unspecified), the EC50 came to 7.2 nM.
Take `O=C(Nc1ccc(Cl)cc1F)NC1CCN(c2c(F)cc(N3CCCS3(=O)=O)cc2F)C1=O` (stereo unspecified): the EC50 worked out at 4.4 nM.
For `CN(CCO)[C@@H]1CCN(c2ccc(N3CCC(NC(=O)Nc4ccc(Cl)cc4)C3=O)c(F)c2F)C1` (stereo partly specified), the EC50 was 0.27 nM.
Turning to `CN(C)[C@@H]1CCN(c2ccc(N3CC[C@@H](NC(=O)Nc4ccc(Cl)cc4)C3=O)c(F)c2F)C1`, the EC50 stood at 0.19 nM.
As to `CN(C)[C@@H]1CCN(c2ccc(N3CC[C@@H](NC(=O)Nc4ccc(C(F)(F)F)cc4)C3=O)c(F)c2F)C1`, the EC50 stood at 0.21 nM.

The term EC50 denotes the concentration at which the effect is half-maximal.
